pEC50: −log10 of the molar value.
Tested on: HCV 1b genotype
Test: HCV Replicon assay (HCV-neo replicon cells, wild-type)
Format: cell-based
Conditions: HCV 1b genotype replicon
Method in brief: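 Assay used wild-type HCV genotype 1b replicon cells carrying neo, with luciferase reporter read-outs in some formats.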

[1] = Hepatitis C virus, class symbols
[2] = Hepatitis C virus, numeric values

SMILES: C[C@H](NC(=O)[C@H](O)c1ccccc1)c1nc2cc(C#Cc3ccc4[nH]c([C@H](C)NC(=O)[C@H](O)c5ccccc5)nc4c3)ccc2[nH]1 [Example M27]
- pEC50 (class symbols): > 8.34

SMILES: O=C(Cc1ccccc1)N1CCC[C@H]1c1nc2cc(CCc3ccc4[nH]c([C@@H]5CCCN5C(=O)Cc5ccccc5)nc4c3)ccc2[nH]1 [Example M38]
- pEC50 [1]: > 8.34

SMILES: COC(=O)N[C@@H](C)C(=O)N1[C@@H]2C[C@@H]2C[C@H]1c1nc2cc(Oc3cccc(-c4ccc5[nH]c([C@@H]6C[C@H]7C[C@H]7N6C(=O)[C@H](C)NC(=O)OC)nc5c4)c3)ccc2[nH]1 [Example V2, methyl ((1S)-2-((1R,3S,5R)-3-(5-(3-((2-((1R,3S,5R)-2-(N-(methoxycarbonyl)-L-alanyl)-2-azabicyclo[3.1.0]hex-3-yl)-1H-benzimidazol-5-yl)oxy)phenyl)-1H-benzimidazol-2-yl)-2-azabicyclo[3.1.0]hex-2-yl)-1-methyl-2-oxoethyl) carbamate]
- pEC50 (class symbols): > 8.34

SMILES: C[C@](O)(C(=O)N1CCC[C@H]1c1nc2ccc(-c3ccc(-c4ccc5nc([C@@H]6CCCN6C(=O)[C@](C)(O)c6ccccc6)[nH]c5c4)o3)cc2[nH]1)c1ccccc1 [JG1, (2R,2′R)-1,1′-(2,5-furandiylbis(1H-benzimidazole-5,2-diyl(2S)-2,1-pyrrolidinediyl))bis(1-oxo-2-phenyl-2-propanol)]
- pEC50 [1]: 7.00 to 8.34

SMILES: CCC(=O)N1CCC[C@H]1c1nc2cc(C#Cc3ccc4[nH]c([C@@H]5CCCN5C(=O)CC)nc4c3)ccc2[nH]1 [Example M2]
- pEC50 (class symbols): 7.00 to 8.34

SMILES: CN(C)[C@@H](C(=O)N1CCC[C@H]1c1nc2cc(-c3cnc(-c4ccc5nc([C@@H]6C[C@@H]7C[C@@H]7N6C(=O)[C@@H](c6ccccc6)N(C)C)[nH]c5c4)o3)ccc2[nH]1)c1ccccc1 [Example J23, (1R)-2-((2S)-2-(5-(2-(2-((1S,3S,5S)-2-((2R)-2-(dimethyl-amino)-2-phenylacetyl)-2-azabicyclo[3. 1.0]hex-3-yl)-1H-benzimidazol-5-yl)-1,3-oxazol-5-yl)-1H-benzimidazol-2-yl)-1-pyrrolidinyl)-N,N-dimethyl-2-oxo-1-phenyl-ethanamine]
- pEC50 [1]: > 8.34

SMILES: O=C(Cc1cccs1)N1CCC[C@H]1c1nc2cc(C#Cc3ccc4nc([C@@H]5CCCN5C(=O)[C@H]5CCCO5)[nH]c4c3)ccc2[nH]1 [Example M50, 5-((2-((2S)-1-((2R)-tetrahydro-2-furanylcarbonyl)-2-pyrrolidinyl)-1H-benzimidazol-6-yl)ethynyl)-2-((2S)-1-(2-thienylacetyl)-2-pyrrolidinyl)-1H-benzimidazole]
- pEC50 [1]: > 8.34

SMILES: O=C(c1ccco1)N1CCC[C@H]1c1nc2cc(C#Cc3ccc4[nH]c([C@@H]5CCCN5C(=O)c5ccco5)nc4c3)ccc2[nH]1 [Example M26.6, 5,5′-(1,2-ethynediyl)bis(2-((2S)-1-(2-furoyl)-2-pyrrolidinyl)-1H-benzimidazole)]
- pEC50 [1]: 7.00 to 8.34

SMILES: CC(C)(C)OC(=O)N1CCN(C(=O)OCc2ccccc2)C(c2nc3cc(CCc4ccc5nc(C6CN(C(=O)OC(C)(C)C)CCN6C(=O)OCc6ccccc6)[nH]c5c4)ccc3[nH]2)C1 (stereo not shown) [OL8, 1-benzyl 4-tert-butyl 2-(5-(2-(2-(1-((benzyloxy)carbonyl)-4-(tert-butoxycarbonyl)-2-piperazinyl)-1H-benzimidazol-6-yl)ethyl)-1H-benzimidazol-2-yl)-1,4-piperazinedicarboxylate]
- pEC50 [2]: 5.54

SMILES: C[C@@H](c1nc2cc(C#Cc3ccc4[nH]c([C@H](C)N(C)C(=O)[C@@](C)(O)c5ccccc5)nc4c3)ccc2[nH]1)N(C)C(=O)[C@@](C)(O)c1ccccc1 [Example M34]
- pEC50 (numeric values): 7.40

SMILES: O=CN[C@@H](C(=O)N1CCC[C@H]1c1nc2cc(C#Cc3ccc4[nH]c([C@@H]5CCCN5C(=O)[C@H](NC=O)c5ccccc5)nc4c3)ccc2[nH]1)c1ccccc1 [Example M20, N,N′-(1,2-ethynediylbis(1H-benzimidazole-5,2-diyl(2S)-2,1-pyrrolidinediyl((1R)-2-oxo-1-phenyl-2,1-ethanediyl)))diformamide]
- pEC50 [1]: > 8.34

SMILES: COc1ccc(C)cc1C(=O)N1CCC[C@H]1c1nc2ccc(C#Cc3ccc4[nH]c([C@@H]5CCCN5C(=O)[C@H]5CCCO5)nc4c3)cc2[nH]1 [Example M54.14, 5-((2S-((2S)-1-(2-methoxy-5-methylbenzoyl)-2-pyrrolidinyl)-1H-benzimidazol-6-yl)ethynyl)-2-((2S)-1-((2R)-tetrahydro-2-furanylcarbonyl)-2-pyrrolidinyl)-1H-benzimidazole]
- pEC50 (class symbols): 6.00 to 7.00

SMILES: O=C([C@@H](c1ccccc1)N1CCOCC1)N1CCC[C@H]1c1nc2cc(C#Cc3ccc4[nH]c([C@@H]5CCCN5C(=O)[C@@H](c5ccccc5)N5CCOCC5)nc4c3)ccc2[nH]1 [Example M22, 5,5′-(1,2-ethynediyl)bis(2-((2S)-1-((2R)-2-(4-morpholinyl)-2-phenylacetyl)-2-pyrrolidinyl)-1H-benzimidazole)]
- pEC50 [1]: > 8.34

SMILES: O=C([C@H](O)c1ccccc1)N1CCC[C@H]1c1nc2cc(C#Cc3ccc4[nH]c([C@@H]5CCCN5C(=O)[C@H](O)c5ccccc5)nc4c3)ccc2[nH]1 [Example M15, (1R,1′R)-2,2′-(1,2-ethynediylbis(1H-benzimidazole-5,2-diyl(2S)-2,1-pyrrolidinediyl))bis(2-oxo-1-phenylethanol)]
- pEC50 [1]: > 8.34

SMILES: CC(C)(C)OC(=O)C[C@H](NC(=O)OCc1ccccc1)c1nc2cc(CCc3ccc4nc([C@H](CC(=O)OC(C)(C)C)NC(=O)OCc5ccccc5)[nH]c4c3)ccc2[nH]1 [OL9, tert-butyl (3S)-3-(((benzyloxy)carbonyl)amino)-3-(5-(2-(2-((1S)-1-(((benzyloxy)carbonyl)amino)-3-tert-butoxy-3-oxopropyl)-1H-benzimidazol-6-yl)ethyl)-1H-benzimidazol-2-yl)propanoate]
- pEC50 [1]: 7.00 to 8.34

SMILES: O=C(c1ccncc1)N1CCN(C(=O)OCc2ccccc2)C(c2nc3cc(CCc4ccc5nc(C6CN(C(=O)c7ccncc7)CCN6C(=O)OCc6ccccc6)[nH]c5c4)ccc3[nH]2)C1 (stereo not shown) [OL13, benzyl 2-(5-(2-(2-(1-((benzyloxy)carbonyl)-4-isonicotinoyl-2-piperazinyl)-1H-benzimidazol-6-yl)ethyl)-1H-benzimidazol-2-yl)-4-isonicotinoyl-1-piperazinecarboxylate]
- pEC50 [2]: 5.07

SMILES: CC(=O)N[C@@H](C(=O)N1CCC[C@H]1c1nc2cc(-c3cnc(-c4ccc5nc([C@@H]6C[C@@H]7C[C@@H]7N6C(=O)[C@H](NC(C)=O)c6ccccc6)[nH]c5c4)o3)ccc2[nH]1)c1ccccc1 [Example J24, N-((1R)-2-((2S)-2-(5-(2-(2-((1S,3S,5S)-2-((2R)-2-acetamido-2-phenylacetyl)-2-azabicyclo[3. 1.0]hex-3-yl)-1H-benzimidazol-5-yl)-1,3-oxazol-5-yl)-1H-benzimidazol-2-yl)-1-pyrrolidinyl)-2-oxo-1-phenylethyl) acetamide]
- pEC50 [1]: > 8.34

SMILES: COC(=O)N[C@@H](C(=O)N1CCC[C@H]1c1nc2cc(-c3ccc4nc([C@@H]5CCCN5C(=O)[C@H](NC(=O)OC)c5ccccc5)[nH]c4c3)ccc2[nH]1)c1ccccc1 [Example F2, dimethyl(1H,1′H-5,5′-bibenzimidazole-2,2′-diylbis((2S)-2,1-pyrrolidinediyl((1R)-2-oxo-1-phenyl-2,1-ethanediyl)))biscarbamate]
- pEC50 [1]: > 8.34

SMILES: O=C(C1CC1)N1CCC[C@H]1c1nc2ccc(C#Cc3ccc4[nH]c([C@@H]5CCCN5C(=O)[C@H]5CCCO5)nc4c3)cc2[nH]1 [Example M54.9, 5-((2-((2S)-1-(cyclopropyl-carbonyl)-2-pyrrolidinyl)-1H-benzimidazol-6-yl)ethynyl)-2-((2S)-1-((2R)-tetrahydro-2-furanylcarbonyl)-2-pyrrolidinyl)-1H-benzimidazole]
- pEC50 [1]: 7.00 to 8.34

SMILES: O=C(C1CCOC1)N1CCC[C@H]1c1nc2cc(C#Cc3ccc4[nH]c([C@@H]5CCCN5C(=O)C5CCOC5)nc4c3)ccc2[nH]1 (stereo partly drawn) [Example M14, 5,5′-(1,2-ethynediyl)bis(2-((2S)-1-(tetrahydro-3-furanylcarbonyl)-2-pyrrolidinyl)-1H-benzimidazole)]
- pEC50 [1]: 7.00 to 8.34

SMILES: CN(C)[C@@H](C(=O)N1CCC[C@H]1c1nc2cc(-c3ccc(-c4ccc5nc([C@@H]6CCCN6C(=O)[C@@H](c6ccccc6)N(C)C)[nH]c5c4)o3)ccc2[nH]1)c1ccccc1 [JG4, (1R)-2-((2S)-2-(5-(5-(2-((2S)-1-((2R)-2-(dimethylamino)-2-phenylacetyl)-2-pyrrolidinyl)-1H-benzimidazol-6-yl)-2-furyl)-1H-benzimidazol-2-yl)-1-pyrrolidinyl)-N,N-dimethyl-2-oxo-1-phenylethanamine]
- pEC50 [1]: > 8.34

SMILES: O=C(c1ccoc1)N1CCC[C@H]1c1nc2ccc(C#Cc3ccc4[nH]c([C@@H]5CCCN5C(=O)[C@H]5CCCO5)nc4c3)cc2[nH]1 [Example M54.5, 5-((2-((2S)-1-(3-furoyl)-2-pyrrolidinyl)-1H-benzimidazol-6-yl)ethynyl)-2-((2S)-1-((2R)-tetrahydro-2-furanylcarbonyl)-2-pyrrolidinyl)-1H-benzimidazole]
- pEC50 [1]: 7.00 to 8.34

SMILES: CCC(=O)N1CCC[C@H]1c1nc2cc(C#Cc3ccc4nc([C@@H]5CCCN5C(C)=O)[nH]c4c3)ccc2[nH]1 [Example M54.29, 5-((2-((2S)-1-acetyl-2-pyrrolidinyl)-1H-benzimidazol-6-yl)ethynyl)-2-((2S)-1-propionyl-2-pyrrolidinyl)-1H-benzimidazole]
- pEC50 [1]: 6.00 to 7.00

SMILES: O=C([C@H]1CCCO1)N1C[C@H](O)C[C@H]1c1nc2cc(C#Cc3ccc4[nH]c([C@@H]5C[C@@H](O)CN5C(=O)[C@H]5CCCO5)nc4c3)ccc2[nH]1 [Example M47.1, (3R,5S,3′R,5′S)-5,5′-(1,2-ethynediylbis(1H-benzimidazole-5,2-diyl))bis(1-((2R)-tetrahydro-2-furanylcarbonyl)-3-pyrrolidinol)]
- pEC50 [1]: 6.00 to 7.00

SMILES: COc1cccc(CC(=O)N2CCC[C@H]2c2nc3cc(C#Cc4ccc5nc([C@@H]6CCCN6C(C)=O)[nH]c5c4)ccc3[nH]2)c1 [Example M54.17, 5-((2-((2S)-1-acetyl-2-pyrrolidinyl)-1H-benzimidazol-6-yl)ethynyl)-2-((2S)-1-((3-methoxyphenyl)acetyl)-2-pyrrolidinyl)-1H-benzimidazole]
- pEC50 [1]: 7.00 to 8.34
